Measurements: patent US10017501B2, “Benzimidazole derivatives as bromodomain inhibitors” (Gilead Sciences, Inc., priority 2013, dated 2018)
Where two headings read alike, the source gives them in different places.

How the values were obtained:
MT-4 cells = assay: MT-4 proliferation assay; assay type: cell-based, human
Experimental: MT-4 Proliferation Assay:
Compounds were tested in a standardized high-throughput 384-well assay format. Each compound was serially diluted 3-fold in 100% DMSO in polypropylene 384-well plates using a Biomek FX Workstation, and 0.4 μL compound added to an assay plate containing 40 μL RPMI media. Compounds were arranged in a horizontal pattern, with 10 concentrations per compound, and 8 compounds added per plate. Due to low DMSO tolerability, the final DMSO concentration never exceeded 0.5% (v/v). Each assay plate contained 10 μM Puromycin and 0.5% DMSO in RPMI-1640 as positive and negative controls respectively. MT-4 cells (HTLV-1 transformed, human T lymphoblastoid cells, NIH Aids Reagent program) were added in volumes of 35 μL per well and 2,000 cells per well using a Biotek uFlow Workstation (Biotek, Winooski, Vt.), and the plates subsequently incubated for 5 days at 37° C. in an incubator set at 5% CO2 and 90% humidity.
After 5 days, 22 μL Cell Titer Glo (Promega) was added to the assay plates with a Biotek uFlow Workstation. Plates were subsequently placed on a Perkin Elmer Envision Plate Reader for 5 minutes before the luminescence signal was read.

[1] = system: c-Myc produced in MM.1S cells; assay: c-Myc down regulation assay (MSD); assay type: cell-based; conditions: 24 hrs
Experimental: (§1) c-Myc Down Regulation and MM.1S Viability Assays:
An enzyme linked immunosorbent assay using the Meso Scale Diagnostic (MSD) technology was used to detect levels of c-Myc produced in MM.1S cells (ATCC). MM.1S cells were cultured in RPMI-1640 media (Corning), supplemented with 10% FBS (Hyclone), 1% penicillin-streptomycin (Cellgro), 2-mercaptoethanol (Gibco) and seeded onto 384-tissue culture treated filter binding plates (Millipore) at a density of 40K cells/well containing titrations of small molecule inhibitors or DMSO (0.4%) in a volume of […] of media. After an incubation time of 24 hrs, cells were lysed (1× lysis buffer (Thermo) supplemented with protease and phosophatase inhibitor cocktail (Thermo)) and the plates centrifuged (1000 rpm, 1 min) to capture c-Myc on MSD plates coated with a monoclonal c-Myc antibody (Origene). Assay wells were washed (3× Invitrogen wash buffer) and probed with a polyclonal c-Myc antibody (Abcam) and MSD detection antibody solution in order to detect levels of c-Myc on the MSD platform. c-Myc capture was reported in pg/ml based on a standard curve using recombinant c-Myc protein (Prosci). EC50 values were calculated from the fit of the dose-response curves to a four-parameter equation. All EC50 values represent geometric mean values of a minimum of four determinations. These assays generally produced results within 3-fold of the reported mean.

MM.1S cells = assay: MM.1S viability assay (CellTiter Glo); assay type: cell-based; conditions: 72 hr, read-out: MM.1S Cell viability (EC50)
Experimental: as §1
For cell viability in the MM.1S cell line, cells were seeded onto 384-tissue culture treated plates (Greiner) at a density of 60K cells/well containing titrations of small molecule inhibitors or DMSO (0.2%). After 72 hr incubation cells were analyzed for cell viability by addition of CellTiter Glo (Promega) to the assay plates. After 15 min incubation at room temperature the signal from the viable cells was analyzed on an Envision plate reader (Perkin Elmer). EC50 values were calculated from the fit of the dose-response curves to a four-parameter equation. All EC50 values represent geometric mean values of a minimum of four determinations. These assays generally produced results within 3-fold of the reported mean.

[2] = Homo sapiens, MT4, 120 h, Table 2, 5 days, Cell Titer Glo, read-out: MT4 Assay (EC50)

EC50 ([1]; Homo sapiens, MM1.S) [µM] | EC50 (MM.1S cells; Homo sapiens, MM1.S) [µM] | SMILES | EC50 (MT-4 cells; Homo sapiens, MT4, 120 h, read-out: MT4 Assay (EC50, nM)) [nM] | EC50 (MT-4 cells; [2]) [nM] | EC50 (MT-4 cells; Table 2, 5 days, Cell Titer Glo, read-out: MT4 Assay (EC50)) [nM] | EC50 [1] [µM] | EC50 (MM.1S cells) [µM]
0.0153 | 0.0169 | Cc1noc(C)c1-c1cc(C(O)(c2cccnn2)C2CCC(C)(C)O2)c2nc(C3CC3)[nH]c2c1 (single isomer, unassigned) [Compound 1020-298, (2-cyclopropyl-6-(3,5-dimethylisoxazol-4-yl)-1H-benzo[d]imidazol-4-yl)(5,5-dimethyltetrahydrofuran-2-yl)(pyridazin-3-yl)methanol] | – | 5.6 | – | – | –
– | – | Cc1noc(C)c1-c1cc(C(O)(c2cccnn2)C2CCCO2)c2nc(C3CC3)[nH]c2c1 (single isomer, unassigned) [Compound 1020-289, (2-cyclopropyl-6-(3,5-dimethylisoxazol-4-yl)-1H-benzo[d]imidazol-4-yl)(pyridazin-3-yl)(tetrahydrofuran-2-yl)methanol] | – | – | 4.2 | 0.0057 | 0.0178
0.0331 | 0.0475 | Cc1noc(C)c1-c1cc(C(O)(c2ccccn2)c2ncccn2)c2nc(C3CC3)[nH]c2c1 (single isomer, unassigned) [Compound 1020-239, (2-cyclopropyl-6-(3,5-dimethylisoxazol-4-yl)-1H-benzo[d]imidazol-4-yl)(pyridin-2-yl)(pyrimidin-2-yl)methanol] | – | 14 | – | – | –
0.0567 | 0.145 | Cc1noc(C)c1-c1cc(C(O)(c2ccccc2)c2cccnc2)c2nc(C3CC3)[nH]c2c1 (stereo not drawn) [Compound 1020-112, (2-cyclopropyl-6-(3,5-dimethylisoxazol-4-yl)-1H-benzo[d]imidazol-4-yl)(phenyl)(pyridin-3-yl)methanol] | – | 18.2 | – | – | –
0.104 | 0.084 | Cc1noc(C)c1-c1cc(C(O)(c2ccccn2)c2ccccn2)c2nc(C3CC3)[nH]c2c1F [Compound 1020-224, (2-cyclopropyl-6-(3,5-dimethylisoxazol-4-yl)-7-fluoro-1H-benzo[d]imidazol-4-yl)di(pyridin-2-yl)methanol] | – | 20.5 | – | – | –
0.0631 | 0.169 | Cc1noc(C)c1-c1cc(C(O)(c2ccccc2)c2ccccn2)c2nc(C3CC3)[nH]c2c1 (stereo not drawn) [Compound 1020-113, (2-cyclopropyl-6-(3,5-dimethylisoxazol-4-yl)-1H-benzo[d]imidazol-4-yl)(phenyl)(pyridin-2-yl)methanol] | – | 19.9 | – | – | –
0.0373 | 0.0728 | Cc1noc(C)c1-c1cc(C(O)(c2nccs2)c2nccs2)c2nc(C3CC3)[nH]c2c1 [Compound 1020-103, (2-cyclopropyl-6-(3,5-dimethylisoxazol-4-yl)-1H-benzo[d]imidazol-4-yl)di(thiazol-2-yl)methanol] | – | 10 | – | – | –
0.0557 | 0.0284 | Cc1noc(C)c1-c1cc(C(O)(c2ncccn2)c2ccc(F)cc2F)c2nc(C3CC3)[nH]c2c1 (stereo not drawn) [Compound 1020-257, (2-Cyclopropyl-6-(3,5-dimethylisoxazol-4-yl)-1H-benzo[d]imidazol-4-yl)(2,4-difluorophenyl)(pyrimidin-2-yl)methanol] | – | 14.2 | – | – | –
0.0515 | 0.0555 | Cc1noc(C)c1-c1cc(C(O)(c2ccccn2)c2ccccn2)c2nc(C3CC3)[nH]c2c1 [Compound 1020-104, (2-cyclopropyl-6-(3,5-dimethylisoxazol-4-yl)-1H-benzo[d]imidazol-4-yl)di(pyridin-2-yl)methanol] | – | 12.6 | – | – | –

SMILES | EC50 ([1]; Homo sapiens, MM1.S) [µM] | EC50 (MM.1S cells; Homo sapiens, MM1.S) [µM] | EC50 (MT-4 cells; Homo sapiens, MT4, 120 h, read-out: MT4 Assay (EC50, nM)) [nM] | EC50 (MT-4 cells; [2]) [nM] | EC50 (MT-4 cells; Table 2, 5 days, Cell Titer Glo, read-out: MT4 Assay (EC50)) [nM] | EC50 [1] [µM] | EC50 (MM.1S cells) [µM]
Cc1cccc(C(O)(c2cc(-c3c(C)noc3C)cc3[nH]c(C4CC4)nc23)C2CCCO2)n1 (racemic) [Compound 1020-114, (2-cyclopropyl-6-(3,5-dimethylisoxazol-4-yl)-1H-benzo[d]imidazol-4-yl)(6-methylpyridin-2-yl)(tetrahydrofuran-2-yl)methanol] | 0.0048 | 0.0212 | 2.5 | – | – | – | –
